Source: patent publication US8664408B2, “Synthesis process, and crystalline form of 4-{3-[cis-hexahydrocyclopenta[c]pyrrol-2(1H)-yl]proxy}benzamide hydrochloride and pharmaceutical compositions containing it” (Les Laboratoires Servier, priority 2011, dated 2014)

Columns and labels:
[1] = system: central nervous system; assay: pharmacological study
Source text: Neurodegenerative diseases more especially targeted are Alzheimer's disease, Parkinson's disease, Pick's disease, Korsakoff's disease, Lewy body dementias, frontal and subcortical dementias, frontotemporal dementias and vascular dementias.

[2] = dissolution of crystalline form I; type: physicochemical
Source text: Obtaining this crystalline form has the advantage of allowing especially rapid and efficient filtration and also the preparation of pharmaceutical formulations having a consistent and reproducible composition, which is especially advantageous when those formulations are intended for oral administration.

[3] = storage stability of crystalline form I; type: physicochemical; conditions: periods of up to 18 months
Source text: The form thereby obtained is sufficiently stable to allow its storage for an extended period without particular conditions for temperature, light, humidity or oxygen levels.

| stability on storage ([3]; at 25° C. with a humidity level of 60% in a double bag of polyethylene) | stability on storage ([3]; at 30° C. with a humidity level of 65% in a double bag of polyethylene) | stability on storage ([3]; at 30° C. with a humidity level of 85% in a double bag of polyethylene) | SMILES | activity on the central nervous system [1] | dissolution properties [2] |
| --- | --- | --- | --- | --- | --- |
| – | – | – | NC(=O)c1ccc(OCCCN2C[C@H]3CCC[C@H]3C2)cc1 [form I of its free base, 4-{3-[cis-Hexahydrocyclopenta[c]pyrrol-2(1H)-yl]propoxy}benzamide] | substantial activity | – |
| very stable | very stable | very stable | Cl.NC(=O)c1ccc(OCCCN2C[C@H]3CCC[C@H]3C2)cc1 [4-{3-[cis-Hexahydrocyclopenta[c]pyrrol-2(1H)-yl]propoxy}benzamide hydrochloride] | substantial activity | noteworthy properties of immediate dissolution |
